From patent publication EP4574773A1, “DEVICE AND METHOD FOR TREATING CO[…] EFFLUENTS” (Université Gustave Eiffel, priority 2023, dated 2025)

Tested on: heterotrophic micro-organisms
Experiment: BOD analyses with increasing perchlorate concentrations (respirometric, activated sludge)
Type: cell-based
Conditions: activated sludge from a MBBR reactor; perchlorate 5 and 35 mg L^-1; data not shown
Description: BOD analyses : For these measurements, the range was 0 - 400 mgO2 L^-1, the BOD test solutions were composed of: 141.6 mL of a mixture of carboxylic acids: oxalic acid (625 mg L^-1), maleic acid (137 mg L^-1), glyoxylic acid (261 mg L^-1), and formic acid oxalic acid (321 mg L^-1); 10 mL of a buffer solution: KH2PO4 (8.6 g L^-1), K2HPO4 (21.75 g L^-1), (Na2HPO4,2H2O) (33.4 g L^-1), NH4Cl (1.7 g L^-1); 0.4 mL of- Allylthiourea (C4H8N2S) (1 g L^-1), and 1 mL of activated sludge from a MBBR reactor who had been previously fed with the raw MLL for 4 months, completed with 11 mL concentrate solutions of perchlorate to obtain respective concentrations in perchlorate of 5 and 35 mg L^-1 in the final 164 mL liquid volume.
BOD analyses with increasing perchlorate concentrations have been performed following a similar procedure as previously explained in the last section. […]

## [O-][Cl+3]([O-])([O-])O [perchlorate]
  effect on heterotrophic micro-organisms: inihibiting effect
